MIC data for ten molecules are collected here from ChEMBL document CHEMBL1255519, “The synthesis of paleic acid, an antimicrobial agent effective against Mannheimia and Pasteurella, and its structurally related derivatives” (2010).

≈ marks a conversion by molar mass, not a printed value.

Holding throughout (assay type): functional
The test system of experiment [1] is Pasteurella multocida. Briefly: Antimicrobial activity against Pasteurella multocida M-17 after 17 hrs by serial agar dilution method. As to conditions: M-17, 17 h.
Experiment [2] deals with Pasteurella multocida. The experiment in a line: Antimicrobial activity against Pasteurella multocida Kobe after 17 hrs by serial agar dilution method. (In general: Agar dilution tests growth on a series of plates holding different concentrations.)
The subject of experiment [3] is Pasteurella multocida. Briefly: Antimicrobial activity against Pasteurella multocida TS-8 after 17 hrs by serial agar dilution method.
Experiment [4] has as its system Pasteurella multocida. The experiment in a line: Antimicrobial activity against Pasteurella multocida isolate 6 after 17 hrs by serial agar dilution method.
For experiment [5], the system named is Actinobacillus pleuropneumoniae. Briefly: Antimicrobial activity against Actinobacillus pleuropneumoniae NB001 after 17 hrs by serial agar dilution method.
Experiment [6] concerns Mannheimia haemolytica. Briefly: Antimicrobial activity against Mannheimia haemolytica N811 after 17 hrs by serial agar dilution method.
Experiment [7] has as its system Mannheimia haemolytica. Briefly: Antimicrobial activity against Mannheimia haemolytica N791 after 17 hrs by serial agar dilution method. As to conditions: N791, 17 h.
Experiment [8] deals with Mannheimia haemolytica. Briefly: Antimicrobial activity against Mannheimia haemolytica S801 after 17 hrs by serial agar dilution method.
In experiment [9] the test system is Histophilus somni. Briefly: Antimicrobial activity against Histophilus somni 23N2359 after 17 hrs by serial agar dilution method. As to conditions: 23N2359, 17 h.
Where [10] appears, read: Pasteurella multocida, TS-8, 17 h, read-out: MIC.
The mark [11] stands for this setting: Pasteurella multocida, isolate 6, 17 h, read-out: MIC.
Where [12] appears, read: Actinobacillus pleuropneumoniae, NB001, 17 h, read-out: MIC.
The mark [13] stands for this setting: Mannheimia haemolytica, N811, 17 h, read-out: MIC.
Setting [14] is: Mannheimia haemolytica, S801, 17 h, read-out: MIC.

For orientation: MIC means the lowest concentration found to suppress growth. `CC[C@@H](O)CCCCC/C=C\CCCCCCCC(N)=O`: the MIC in [1] is over 50 µg/mL; in [2] it was over 50 µg/mL; in experiment [3] (setting [10]), 50 µg/mL (≈ 168 µM); in experiment [4] (setting [11]), over 50 µg/mL; in [5] (setting [12]), over 50 µg/mL; in experiment [6] (setting [13]), 12.5 µg/mL (≈ 42 µM). The values for the MIC in experiment [7], in [8] (setting [14]) and in experiment [9] were 25 µg/mL (≈ 84 µM), 50 µg/mL (≈ 168 µM) and over 50 µg/mL, respectively.

As to `CC[C@H](O)CCCCC/C=C\CCCCCCCC(=O)O`, the MIC in experiment [1] was over 50 µg/mL; in experiment [2] it was over 50 µg/mL; in experiment [3] (setting [10]), 6.25 µg/mL (≈ 20.9 µM); in [4] (setting [11]), 50 µg/mL (≈ 168 µM); in [5] (setting [12]), 12.5 µg/mL (≈ 41.9 µM); in [6] (setting [13]) it was 0.78 µg/mL (≈ 2.61 µM). Also, the MIC was 0.78 µg/mL (≈ 2.61 µM) in [7], 0.39 µg/mL (≈ 1.31 µM) in [8] (setting [14]) and over 50 µg/mL in [9].

For `CCC(=O)CCCCC/C=C\CCCCCCCC(=O)O`, the MIC in experiment [1] is over 50 µg/mL; in [2] it was over 50 µg/mL; in [3] (setting [10]), 50 µg/mL (≈ 169 µM); in [4] (setting [11]), 50 µg/mL (≈ 169 µM); in experiment [5] (setting [12]), 6.25 µg/mL (≈ 21.1 µM); in experiment [6] (setting [13]), 6.25 µg/mL (≈ 21.1 µM). The results for the MIC in experiment [7], in experiment [8] (setting [14]) and in [9] were 3.13 µg/mL (≈ 10.6 µM), 6.25 µg/mL (≈ 21.1 µM) and over 50 µg/mL, respectively.

On to `CCC1(CCCCC/C=C\CCCCCCCC(=O)O)OCCO1`, for which the MIC is over 50 µg/mL in experiment [1]; 50 µg/mL (≈ 147 µM) in experiment [2]; 25 µg/mL (≈ 73.4 µM) in experiment [3] (setting [10]); over 50 µg/mL in experiment [4] (setting [11]); over 100 µg/mL in experiment [5] (setting [12]); 25 µg/mL (≈ 73.4 µM) in experiment [6] (setting [13]). Besides, the figures for the MIC in [7], in [8] (setting [14]) and in experiment [9] were 25 µg/mL (≈ 73.4 µM), 25 µg/mL (≈ 73.4 µM) and over 50 µg/mL, respectively.

For `CC/C(CCCCC/C=C\CCCCCCCC(=O)O)=N/O`, the MIC in [1] was over 50 µg/mL; in [2], over 50 µg/mL; in experiment [3] (setting [10]), 25 µg/mL (≈ 80.3 µM); in experiment [4] (setting [11]), 3.13 µg/mL (≈ 10 µM); in experiment [5] (setting [12]) it was 6.25 µg/mL (≈ 20.1 µM); in experiment [6] (setting [13]), 1.56 µg/mL (≈ 5.01 µM). The MIC in experiment [7] is 1.56 µg/mL (≈ 5.01 µM); in [8] (setting [14]) it was 1.56 µg/mL (≈ 5.01 µM); in [9], over 50 µg/mL.

As for `CC[C@@H](O)CCCCC/C=C\CCCCCCCC(=O)NO`, the minimum inhibitory concentration (MIC) in experiment [1] is over 50 µg/mL; in experiment [2], over 50 µg/mL; in [3] (setting [10]), 50 µg/mL (≈ 159 µM); in experiment [4] (setting [11]), 12.5 µg/mL (≈ 39.9 µM); in experiment [5] (setting [12]), 50 µg/mL (≈ 159 µM); in experiment [6] (setting [13]), 25 µg/mL (≈ 79.7 µM). In addition, the results for the MIC in [7], in experiment [8] (setting [14]) and in experiment [9] were 25 µg/mL (≈ 79.7 µM), 50 µg/mL (≈ 159 µM) and over 50 µg/mL, respectively.

As for `CC[C@@H](O)CCCCC/C=C\CCCCCCCC(=O)NS(C)(=O)=O`, the MIC in [1] is over 50 µg/mL; in [2] it was over 50 µg/mL; in experiment [3] (setting [10]) it was 25 µg/mL (≈ 66.6 µM); in experiment [4] (setting [11]), 50 µg/mL (≈ 133 µM); in experiment [5] (setting [12]), over 50 µg/mL; in [6] (setting [13]) it was 50 µg/mL (≈ 133 µM). Further, the MIC was 50 µg/mL (≈ 133 µM) in experiment [7], 25 µg/mL (≈ 66.6 µM) in experiment [8] (setting [14]) and over 50 µg/mL in experiment [9].

As to `CC[C@@H](O)CCCCC/C=C\CCCCCCCc1nnn[nH]1`, the MIC in [1], in experiment [2], in experiment [3] (setting [10]), in experiment [4] (setting [11]), in experiment [5] (setting [12]) and in experiment [6] (setting [13]) was 50 µg/mL (≈ 155 µM) in each case. In addition, the MIC in experiment [7], in experiment [8] (setting [14]) and in [9] was 50 µg/mL (≈ 155 µM) in each case.

Regarding `CC[C@@H](O)CCCCC/C=C\CCCCCCCC(=O)O` (stereo in doubt; 1) [PALEIC ACID], the MIC in experiment [1] is over 50 µg/mL; in [2], over 50 µg/mL; in experiment [3] (setting [10]), 3.13 µg/mL (≈ 10.5 µM); in experiment [4] (setting [11]), 6.25 µg/mL (≈ 20.9 µM); in [5] (setting [12]), 6.25 µg/mL (≈ 20.9 µM); in experiment [6] (setting [13]), 1.56 µg/mL (≈ 5.23 µM). Also, the MIC in [7] is 0.78 µg/mL (≈ 2.61 µM); in [8] (setting [14]), 1.56 µg/mL (≈ 5.23 µM); in experiment [9], over 50 µg/mL.

As for `CC[C@@H](O)CCCCC/C=C\CCCCCCCC(=O)O` (stereo in doubt; 2) [PALEIC ACID], the MIC in experiment [3] stood at 6.25 µg/mL (≈ 20.9 µM); in [4], 12.5 µg/mL (≈ 41.9 µM); in [5], 6.25 µg/mL (≈ 20.9 µM); in experiment [6], 0.78 µg/mL (≈ 2.61 µM); in experiment [8] it was 0.78 µg/mL (≈ 2.61 µM).
